# Measured values taken from patent US11390894B2, “Biological processes for the production of aryl sulfates” (CysBio ApS, priority 2014, dated 2022).
# Legend:
# SULT1E1 from chicken = test: Sulfation of phenolic compounds in vivo by E. coli strain expressing sulfotransferase; type: cell-based, Gallus gallus domesticus; conditions: M9, 1 mM IPTG, overnight 37° C.; start concentration per compound 61-287 μM
# Protocol: (§1) The concentration of p-courmaric acid (pHCA) and zosteric acid in the supernatant was quantified by high performance (HPLC) and compared to chemical standards. HPLC was done on a Thermo setup using a HS-F5 column and mobile phases: 5 mM ammonium formate pH 4.0 (A) and acetonitrile (B) at 1.5 mL min-1, using a gradient elution starting at 5% B. From 0.5 min after injection to 7 min, the fraction of B increased linearly from 5% to 60%, and between 9.5 min and 9.6 the fraction of B decreased back to 5%, and remaining there until 12 min. pHCA and zosteric acid were quantified by measuring absorbance at 277 nm.
# (§2) To further test the range of substrates that can be sulfated, we used strains carrying plasmids expressing SULT1A1 from rat (Rattus norvegicus) and SULT1E1 from chicken (Gallus gallus domesticus) (Example 1) cloned into the expression vector pETDuet-1, and cysDNCQ from E. coli cloned into expression vector pRSFDuet-1 (Example 2). The plasmids were introduced into the E. coli expression strain BL21(DE3)pLysS as described previously, selecting for transformants with appropriate antibiotics, namely 34 μg mL^1 chloramphenicol for pLysS, 100 μg mL^−1 ampicillin for pETDuet-1-based vectors, and 100 μg mL^−1 kanamycin for pRSFDuet-1-based vectors. […] A control strain without a sulfotransferase gene or cysDNCQ operon was also examined.
# (§3) The strains were precultured in 2×YT medium with appropriate antibiotics. 10 μL of these precultures were used to inoculate M9 media with 1 mM IPTG and none or a single substrate for sulfation. After overnight growth at 37° C., 300 rpm the supernatants were withdrawn and examined by HPLC as described in Example 1. The compounds were detected by UV absorbance.
# SULT1A1 rat + CysDNCQ = molecular target: T1, SULT1A1 rat + CysDNCQ (Rattus norvegicus, UniProt P17988); test: Sulfation of phenolic compounds in vivo by E. coli strain expressing sulfotransferase with cysDNCQ; type: cell-based; conditions: M9, 1 mM IPTG, overnight 37° C.; start concentration per compound 61-287 μM
# T1 construct: 1, 3, 4, 5, and 6 were cloned amplified from liver tissue cDNA (Zyagen) by PCR; expressed in transfected cells; host or cells: E. coli BL21(DE3)pLysS with pETDuet-1 (SULT1A1) and pRSFDuet-1 (cysDNCQ)
# Protocol: as §1, §2, §3
# SULT1A1 from rat = molecular target: T2, SULT1A1 from rat (Rattus norvegicus, UniProt P17988); test: Sulfation of phenolic compounds in vivo by E. coli strain expressing sulfotransferase; type: cell-based; conditions: M9, 1 mM IPTG, overnight 37° C.; start concentration per compound 61-287 μM
# T2 construct: 1, 3, 4, 5, and 6 were cloned amplified from liver tissue cDNA (Zyagen) by PCR; expressed in transfected cells; host or cells: E. coli BL21(DE3)pLysS, plasmid pETDuet-1
# Protocol: as §1, §2, §3
# E. coli MG1655 = test: Toxicity of unsulfated or sulfated product: growth rates of E. coli; type: cell-based; conditions: M9 0.2% glucose, pH 7, 37° C.; 10-40 mM pHCA or 20 or 40 mM zosteric acid
# Excerpt: All media preparations had been adjusted to pH 7. […] Filled squares represent growth rates in media with pHCA.
# T2 sequence (P17988 whole entry): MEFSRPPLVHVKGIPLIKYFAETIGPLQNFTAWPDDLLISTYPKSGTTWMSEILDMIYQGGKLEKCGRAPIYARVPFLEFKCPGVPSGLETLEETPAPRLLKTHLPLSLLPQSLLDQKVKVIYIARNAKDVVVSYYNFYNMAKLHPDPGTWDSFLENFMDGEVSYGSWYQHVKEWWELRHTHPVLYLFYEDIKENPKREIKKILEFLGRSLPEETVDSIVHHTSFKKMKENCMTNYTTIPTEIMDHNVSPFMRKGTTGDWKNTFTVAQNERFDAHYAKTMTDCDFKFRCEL
# T1 sequence (P17988 whole entry): as above
Compound,"percent reduction in concentration compared to the control strain, SULT1E1 (SULT1E1 from chicken) [%]","percent reduction in concentration compared to the control strain, SULT1A1 + CysDNCQ (SULT1A1 rat + CysDNCQ) [%]","percent reduction in concentration compared to the control strain, SULT1A1 (SULT1A1 from rat) [%]","toxicity to the cells (growth rates in exponential growth phase, FIG. 5) (E. coli MG1655)"
O=C(O)CCc1ccc(O)cc1 [3-(4-Hydroxyphenyl) propionic acid],1,7,3,–
O=C(O)C(=O)Cc1ccc(O)cc1 [4-Hydroxyphenyl pyruvic acid],100,64,47,–
"CC(=O)Nc1ccc(O)cc1 [4-acetamidophenol, reference compound]",10,30,24,–
O=C(O)c1ccc(O)cc1 [4-hydroxybenzoic acid],4,6,5,–
O=c1cc(-c2ccc(O)cc2)oc2cc(O)cc(O)c12 [Apigenin],98,99,41,–
COc1cc(/C=C/C(=O)O)ccc1O [Ferulic acid],67,100,72,–
O=c1cc(-c2ccc(O)c(O)c2)oc2cc(O)cc(O)c12 [Luteolin],0,37,27,–
O=c1c(O)c(-c2ccc(O)c(O)c2)oc2cc(O)cc(O)c12 [Quercetin],74,81,75,–
COc1cc(C(=O)O)ccc1O [Vanillic acid],0,39,33,–
O=c1c(O)c(-c2ccc(O)c(O)c2)oc2cc(O)ccc12 [fisetin],98,100,98,–
"O=C(O)/C=C/c1ccc(O)cc1 [pHCA, p-coumaric acid]",–,–,–,toxic to the cells
